In the assay the test system is KRAS utr-2 (RNA, G4) GGAAGGCGGCGG
The assay is described as follows: UV-vis titration (Soret band). Particulars: 100 mM KCl; 50 mM Tris-HCl pH 7.4 (from methods); 6 μM C14 titrated with G4-RNA; simple binding equation.

Take `CCCCCCCCCCCCCC[n+]1ccc(-c2c3nc(c(-c4cc[n+](C)cc4)c4ccc([nH]4)c(-c4cc[n+](C)cc4)c4nc(c(-c5cc[n+](C)cc5)c5ccc2[nH]5)C=C4)C=C3)cc1`: the KD is recorded as ~ 5 × 10^-7 M.

The values are drawn from publication PMC4021972 (2014).
